Test results reported in paper PMC3475094, “Identification Of Small Molecule TRABID Deubiquitinase Inhibitors By Computation-Based Virtual Screen” (BMC Chemical Biology, 2012).

Biological target: T1, TRABID (Homo sapiens, UniProt Q9UGI0)
T1 construct: gene ZRANB1; full length TRABID
T1 sequence (Q9UGI0 1-708): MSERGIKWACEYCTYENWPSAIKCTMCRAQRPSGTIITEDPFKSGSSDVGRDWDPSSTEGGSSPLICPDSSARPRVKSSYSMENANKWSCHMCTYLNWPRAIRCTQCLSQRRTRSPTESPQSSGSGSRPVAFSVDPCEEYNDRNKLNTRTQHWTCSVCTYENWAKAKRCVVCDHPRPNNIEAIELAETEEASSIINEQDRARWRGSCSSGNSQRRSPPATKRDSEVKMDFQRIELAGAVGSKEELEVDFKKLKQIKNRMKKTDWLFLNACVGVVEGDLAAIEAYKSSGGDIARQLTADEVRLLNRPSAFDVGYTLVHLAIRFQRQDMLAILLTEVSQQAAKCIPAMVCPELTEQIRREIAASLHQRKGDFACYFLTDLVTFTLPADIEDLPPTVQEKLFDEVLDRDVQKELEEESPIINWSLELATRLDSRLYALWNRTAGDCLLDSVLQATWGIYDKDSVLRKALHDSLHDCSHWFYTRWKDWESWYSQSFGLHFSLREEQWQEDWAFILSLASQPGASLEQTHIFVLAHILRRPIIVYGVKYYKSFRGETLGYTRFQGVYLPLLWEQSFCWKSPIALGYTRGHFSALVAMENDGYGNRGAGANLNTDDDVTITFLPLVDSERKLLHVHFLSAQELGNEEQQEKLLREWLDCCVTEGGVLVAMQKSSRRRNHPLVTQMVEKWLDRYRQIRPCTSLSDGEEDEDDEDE
Assay: Hexa-K63 ubiquitin cleavage assay, Western blot quantification
Type: biochemical

Structure (SMILES) | IC50
Oc1cc(Br)c(O)cc1Br [compound 133363, NSC133363] | 7.17 µM
Cc1cc(O)c(Cl)cc1O [compound 29034, NSC29034] | 7.54 µM
